In ChEMBL document CHEMBL1201862, “PubChem BioAssay data set” (2004):
Values joined by “and” are separate entries in the source; they are usually repeats but may differ in a detail not shown here. Equal entries are not always repeated.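 Cultured in 96-well plates, cells were exposed to test compound for 48 hours across five concentrations. GI50 = concentration required for 50% inhibition of growth.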 Active and inactive are the calls of the source. Rule as the data show it: active = GI50 up to about 1.1 µM and inactive = higher.

Legend:
Experiment in all cases: NCI tumour cell line growth inhibition, 48 h
A498 = tested on: A498
ACHN = tested on: ACHN
HCT-15 = tested on: HCT-15
HOP-92 = tested on: HOP-92
K562 = tested on: K562
MOLT-4 = tested on: MOLT-4
OVCAR-4 = tested on: OVCAR-4
OVCAR-5 = tested on: OVCAR-5
SF-295 = tested on: SF-295
SF-539 = tested on: SF-539
SK-MEL-28 = tested on: SK-MEL-28
SK-MEL-2 = tested on: SK-MEL-2
SNB-75 = tested on: SNB-75
U-251 = tested on: U-251
HOP-62 = tested on: HOP-62

| Structure (SMILES) | GI50 (A498) | GI50 (ACHN) | GI50 (HCT-15) | GI50 (HOP-92) | GI50 (K562) | GI50 (MOLT-4) | GI50 (OVCAR-4) | GI50 (OVCAR-5) | GI50 (SF-295) | GI50 (SF-539) | GI50 (SK-MEL-28) | GI50 (SK-MEL-2) | GI50 (SNB-75) | GI50 (U-251) | GI50 (HOP-62) |
| --- | --- | --- | --- | --- | --- | --- | --- | --- | --- | --- | --- | --- | --- | --- | --- |
| COc1c(Cl)c(Cl)c(OC)c2c1C(=O)C=CC2=O | > 100 µM (inactive) | 15.1 µM (inactive) | 35.6 µM | 15.3 µM (inactive) | 7.85 µM (inactive) | 2.9 µM (inactive) | 15.3 µM (inactive) | 35.5 µM (inactive) | 18.5 µM (inactive) | 20 µM (inactive) | 17.7 µM (inactive) | 17.3 µM (inactive) | 21.4 µM (inactive) | 20.7 µM (inactive) |  |
| C[N+](C)(C)CC(=O)N/N=C(/C(=O)Nc1ccc(Br)cc1)C1C(=O)NC(=O)NC1=O | > 100 µM (inactive) | > 100 µM (inactive) | > 100 µM |  | > 100 µM (inactive) | > 100 µM (inactive) | > 100 µM (inactive) | > 100 µM (inactive) | > 100 µM (inactive) | > 100 µM (inactive) | > 100 µM (inactive) | > 100 µM (inactive) | > 100 µM (inactive) | > 100 µM (inactive) | > 100 µM (inactive) |
| O=C(Cc1ccc(F)cc1)NC1=C(Cl)C(=O)c2ccccc2C1=O |  | 1.47 µM (inactive) | 1.31 µM | 1.69 µM (inactive) | 1.54 µM (inactive) | 1.79 µM (inactive) | 2.06 µM (inactive) | 3.85 µM (inactive) | 3.83 µM (inactive) | 2.24 µM (inactive) | 4.05 µM (inactive) | 2.43 µM (inactive) | 2.5 µM (inactive) | 3.07 µM (inactive) | 10 µM (inactive) |
| COc1ccc2nc(NC(=O)C(=O)CC(=O)c3ccc([N+](=O)[O-])cc3)sc2c1 | > 100 µM (inactive) | > 100 µM (inactive) |  | > 100 µM (inactive) | > 100 µM (inactive) | > 100 µM (inactive) | > 100 µM (inactive) | > 100 µM (inactive) |  | > 100 µM (inactive) | > 100 µM (inactive) | > 100 µM (inactive) | > 100 µM (inactive) | > 100 µM (inactive) | > 100 µM (inactive) |
| Cc1cc(C)c([O-])c(-[n+]2c(-c3ccccc3)cc(-c3ccccc3)cc2-c2ccccc2)c1 |  | 5.13 µM (inactive) | 11.9 µM | 1.73 µM (inactive) | 3.21 µM (inactive) | 2.67 µM (inactive) | 4.28 µM (inactive) | 4.49 µM (inactive) | 4.98 µM (inactive) | 11.2 µM (inactive) | 4.81 µM (inactive) | 2.88 µM (inactive) | 6.18 µM (inactive) | 3.38 µM (inactive) | 10.1 µM (inactive) |
| C[N+](C)(C)CCc1ccccc1 | > 100 µM (inactive) | > 100 µM (inactive) | > 100 µM | > 100 µM (inactive) | > 100 µM (inactive) | > 100 µM (inactive) | > 100 µM (inactive) | > 100 µM (inactive) | > 100 µM (inactive) | > 100 µM (inactive) | > 100 µM (inactive) | > 100 µM (inactive) | > 100 µM (inactive) | > 100 µM (inactive) | > 100 µM (inactive) |
| Cc1ccc(C(=O)O/N=C2/CCCC/C2=C\c2ccccc2)cc1 |  | 27.2 µM (inactive) | 32.4 µM | 54.5 µM (inactive) | 19.2 µM (inactive) |  | 36.9 µM (inactive) | 81.1 µM (inactive) | 39.2 µM (inactive) | 45.1 µM (inactive) | 12.7 µM (inactive) | > 100 µM (inactive) | 33.5 µM (inactive) | 38.3 µM (inactive) | > 100 µM (inactive) |
| Cc1cc(C)c(-n2c(-c3ccccc3)cs/c2=N\N=C2C=C(C(C)(C)C)C(=O)C(C(C)(C)C)=C2)c(C)c1 |  | 90.2 µM (inactive) | > 100 µM | 39 µM (inactive) | 55.8 µM (inactive) | > 100 µM (inactive) | > 100 µM (inactive) | > 100 µM (inactive) | > 100 µM (inactive) | > 100 µM (inactive) | > 100 µM (inactive) | > 100 µM (inactive) | 21.3 µM (inactive) | > 100 µM (inactive) | > 100 µM (inactive) |
| CN(C)/N=N/c1ccccc1 | > 100 µM (inactive) | 25.9 µM (inactive) | 16.7 µM | > 100 µM (inactive) | > 100 µM (inactive) | > 100 µM (inactive) | > 100 µM (inactive) |  | 1.35 µM (inactive) | > 100 µM (inactive) | > 100 µM (inactive) | > 100 µM (inactive) | > 100 µM (inactive) | > 100 µM (inactive) |  |
| CC(C)C(=O)/C=C/c1ccc(Cl)c(Cl)c1 | 24.8 µM (inactive) | 18.5 µM (inactive) |  | 17.4 µM (inactive) | 6.18 µM (inactive) | 24.4 µM (inactive) | 34.9 µM (inactive) | 21.7 µM (inactive) | 13.4 µM (inactive) | 13.2 µM (inactive) | 18.7 µM (inactive) | 17.5 µM (inactive) | > 10 µM (inactive) | 17 µM (inactive) |  |
| CC(SC(=S)N1CCOCC1)c1cc2oc(=O)n(C)c2cc1Cl (configuration not stated) |  | > 100 µM (inactive) | > 100 µM | > 10 µM (inactive) | 33.3 µM (inactive) | 56.1 µM (inactive) | > 100 µM (inactive) | > 100 µM (inactive) | > 100 µM (inactive) | 76 µM (inactive) | > 100 µM (inactive) | > 100 µM (inactive) | 76 µM (inactive) | > 100 µM (inactive) | > 100 µM (inactive) |
| Cc1cc(C)c(C(=O)C(C)C(c2ccccc2)c2ccc(Cl)cc2)c(C)c1 (configuration not stated) |  | > 100 µM (inactive) and 91.8 µM (inactive) | > 100 µM and 51.5 µM |  | 50.5 µM (inactive) and 48.8 µM (inactive) | 65.9 µM (inactive) and 50.7 µM (inactive) | 49.4 µM (inactive) and 67.6 µM (inactive) |  | > 100 µM (inactive) | > 100 µM (inactive) | > 100 µM (inactive) |  | > 100 µM (inactive) | > 100 µM (inactive) | > 100 µM (inactive) |
| CN(C)C=C1C(=O)N(C)C(=O)N(C)C1=O | > 100 µM (inactive) | > 100 µM (inactive) | > 100 µM | > 100 µM (inactive) | > 100 µM (inactive) | > 100 µM (inactive) | > 100 µM (inactive) | > 100 µM (inactive) | > 100 µM (inactive) | > 100 µM (inactive) | > 100 µM (inactive) | > 100 µM (inactive) | > 100 µM (inactive) | > 100 µM (inactive) |  |
| C=C1C(=O)OC2C1C(OC(=O)/C(=C/C)COC(C)=O)CC1(CO1)C1C(OC(=O)/C(=C/C)CO)C=C(C)C21 (configuration not stated) | 3.03 µM (inactive) | 1.9 µM (inactive) | 1.59 µM |  | 1.6 µM (inactive) | 0.378 µM (active) | 2.86 µM (inactive) | 12.2 µM (inactive) | 5.16 µM (inactive) | 5.81 µM (inactive) | 1.82 µM (inactive) | 1.87 µM (inactive) | 2.26 µM (inactive) | 15.1 µM (inactive) |  |
| Cc1c2cc[n+](C)cc2c(C)c2c1[nH]c1ccc(O)c(OCC(F)(F)F)c12 | 10.8 µM (inactive) |  |  | 4.91 µM (inactive) | 2.39 µM (inactive) | 2.42 µM (inactive) | 1.26 µM (inactive) | 7.11 µM (inactive) | 0.839 µM (active) | 2.04 µM (inactive) | 5.65 µM (inactive) | 4.63 µM (inactive) | 0.188 µM (active) | 0.301 µM (active) | 1.12 µM (inactive) |
